Data from patent publication US9700024B2 (priority 2010, dated 2017).
Entries after “also recorded” stand apart in the source; their conditions may differ.

Columns and labels:
[1] = test system: human umbilical vein endothelial cells (HUVECs); assay: In vitro expression of PIGF as an effect of statin, HUVEC; assay type: cell-based; details: statin 1 μM or 10 μM, 24 hours
Procedure: For HUVEC cells, each of the stock solutions was added upon dilution to 1 μM or 10 μM in a culture medium.
HUVEC and HEK293T cells were plated at 2×10^4 and 1×10^5 cells per well in 6-well plates, respectively, and incubated under 5% CO2 at 37° C. After 24 hours, the medium was replaced with a fresh medium containing or not containing a statin. The media collected after another 24 hours were centrifuged at 1,000×g, and the supernatants were subjected to ELISA.

mPIGF [2] = assay: mPIGF concentration in the mother's blood by ELISA, LV-hsFLT1 model; assay type: in vivo, mouse; details: E18.5, pravastatin every day from E7.5, n=7
Procedure: (§1) Blood samples were allowed to clot and were centrifuged to prepare serum samples. Concentrations of hsF1T1, mVEGF, and mPIGF were measured with ELISA kits, according to the manufacturer's instructions (R&D system). Aspartate aminotransferase (AST) and alanine transaminase (ALT) were measured by Fuji dry-chem 3500V and dri-chem slides (Fuji Film.co). Urine samples were collected at E18.5. Urine albumin and creatinine concentrations were measured by using the Fuji dry-chem 3500V and dri-chem slides (Fuji Film.co, Tokyo Japan).

mPIGF [3] = assay: Circulating mPIGF in wild-type female mice not treated with viral vector; assay type: in vivo, mouse
Procedure: Pravastatin sodium salt (Cayman Chemical) was dissolved in 100% ethanol to produce a stock solution (1 mg/mL), which was diluted by sterile PBS (25 μg/mL) before use and intraperitoneally injected every day starting from E7.5 to E18.5 at 5 μg/animal unless specifically instructed otherwise.
as §1

wild-type pregnant mice = details: normal pregnant animals without LV-hsFLT1
Procedure: Blood pressure was measured by the tail-cuff method (Softron Ltd, Tokyo, Japan). The mice were lightly fixed in a small cage without anesthesia, and their blood pressure was measured after their behavior, heart rate, and blood pressure stabilized. After stabilization, both systolic and diastolic blood pressures were recorded at least five times until the stabilization became unstable. Mean values of both the systolic and diastolic blood pressures measured as mentioned above were used for further statistical analysis.

[4] = test system: pregnancy-induced hypertension syndrome model mice (placenta-specific hsFLT1 expression); assay: Urinary albumin/creatinine (proteinuria) in model mice; assay type: in vivo, mouse; details: urine at E18.5; average ± S.E.M.
Procedure: as §1

hsFLT1 = hsFLT1 concentration in the mother's blood by ELISA; assay type: in vivo, mouse; details: E18.5; LV-hsFLT1 100 ng-p24/mL; pravastatin every day from E7.5 where given; mean±s.e.m.
Procedure: as §1

[5] = test system: pups of the pravastatin-treated female animals; assay: Deformity in pups of treated female animals
mVEGF = mVEGF concentration in the mother's blood by ELISA; assay type: in vivo, mouse; details: E18.5; LV-hsFLT1 model; pravastatin every day from E7.5; n=6
Procedure: as §1

[6] = test system: rat model of preeclampsia; details: Hypertension 2007; 50(4): 686-92; cited from earlier work
[7] = test system: hypertension induced by sFLT1 expressed by an adenovirus; details: Hypertension 2009; 54(5): 1129-35; cited from earlier work

## CC(C)c1c(C(=O)Nc2ccccc2)c(-c2ccccc2)c(-c2ccc(F)cc2)n1CC[C@@H](O)C[C@@H](O)CC(=O)O [atorvastatin, (−)-Monocalcium bis {(3R,5R)-7-[2-(4-fluorophenyl-5-isopropyl-3-phenyl-4-phenylcarbamoyl-1H-pyrrol-1-yl]-3,5-dihydroxyheptanoate}trihydrate]
[1]
  PIGF production in supernatant: induced PGF production; also recorded: induce PIGF production

## CC[C@H](C)C(=O)O[C@H]1C[C@H](O)C=C2C=C[C@H](C)[C@H](CC[C@@H](O)C[C@@H](O)CC(=O)O)[C@H]21 [pravastatin, Monosodium(3R,5R)-3,5-dihydroxy-7-{(1S,2S,6S,8S,8aR)-6-hydroxy-2-methyl-8-[(2S)-2-methylbutanoyloxy]-1,2,6,7,8,8a-hexahydronaphthalen-1-yl}heptanoate]
mPIGF [2]
  mPIGF concentration in maternal blood: 116.6 ± 13.2 pg/mL
mPIGF [3]; wild-type non-pregnant female animals, n=5
  circulating mPIGF: 29.8 ± 13.2 pg/mL
mPIGF [3]; wild-type pregnant female animals, n=4
  circulating mPIGF: 152.0 ± 19.7 pg/mL
wild-type pregnant mice
  blood pressure / hypotensive effect: not hypotensive; also recorded: did not change
[4]
  ALBUMIN/CREATININE AVERAGE: 4.06 ± 0.38
hsFLT1
  circulating hsFLT1 concentration in the mother's blood: 0.99 ± 0.65 ng/mL
[5]
  deformity in the pups: did not notice any deformity
mVEGF
  mVEGF protein level in maternal blood: 35.5 ± 13.6 pg/mL

## VEGF
[6]
  hypertension: improves hypertension

B1: recombinant PIGF: recombinant placental growth factor 2 (literature) (protein)
chain: VHSQGALSAGNNSTEVEVVPFNEVWGRSYCRPMEKLVYILDEYPDEVSHIFSPSCVLLSRCSGCCGDEGLHCVPIKTANITMQILKIPPNRDPHFYVEMTFSQDVLCECRPILETTKAERRKTKGKRKRSRNSQTEEPHP
[7]
  hypertension: improves hypertension
